The target in this assay is Abl (Homo sapiens, UniProt P00519). Nature of the assay: in vitro kinase assay with active recombinant Abl. It is filed as biochemical.
Abl, sequence (P00519 whole entry): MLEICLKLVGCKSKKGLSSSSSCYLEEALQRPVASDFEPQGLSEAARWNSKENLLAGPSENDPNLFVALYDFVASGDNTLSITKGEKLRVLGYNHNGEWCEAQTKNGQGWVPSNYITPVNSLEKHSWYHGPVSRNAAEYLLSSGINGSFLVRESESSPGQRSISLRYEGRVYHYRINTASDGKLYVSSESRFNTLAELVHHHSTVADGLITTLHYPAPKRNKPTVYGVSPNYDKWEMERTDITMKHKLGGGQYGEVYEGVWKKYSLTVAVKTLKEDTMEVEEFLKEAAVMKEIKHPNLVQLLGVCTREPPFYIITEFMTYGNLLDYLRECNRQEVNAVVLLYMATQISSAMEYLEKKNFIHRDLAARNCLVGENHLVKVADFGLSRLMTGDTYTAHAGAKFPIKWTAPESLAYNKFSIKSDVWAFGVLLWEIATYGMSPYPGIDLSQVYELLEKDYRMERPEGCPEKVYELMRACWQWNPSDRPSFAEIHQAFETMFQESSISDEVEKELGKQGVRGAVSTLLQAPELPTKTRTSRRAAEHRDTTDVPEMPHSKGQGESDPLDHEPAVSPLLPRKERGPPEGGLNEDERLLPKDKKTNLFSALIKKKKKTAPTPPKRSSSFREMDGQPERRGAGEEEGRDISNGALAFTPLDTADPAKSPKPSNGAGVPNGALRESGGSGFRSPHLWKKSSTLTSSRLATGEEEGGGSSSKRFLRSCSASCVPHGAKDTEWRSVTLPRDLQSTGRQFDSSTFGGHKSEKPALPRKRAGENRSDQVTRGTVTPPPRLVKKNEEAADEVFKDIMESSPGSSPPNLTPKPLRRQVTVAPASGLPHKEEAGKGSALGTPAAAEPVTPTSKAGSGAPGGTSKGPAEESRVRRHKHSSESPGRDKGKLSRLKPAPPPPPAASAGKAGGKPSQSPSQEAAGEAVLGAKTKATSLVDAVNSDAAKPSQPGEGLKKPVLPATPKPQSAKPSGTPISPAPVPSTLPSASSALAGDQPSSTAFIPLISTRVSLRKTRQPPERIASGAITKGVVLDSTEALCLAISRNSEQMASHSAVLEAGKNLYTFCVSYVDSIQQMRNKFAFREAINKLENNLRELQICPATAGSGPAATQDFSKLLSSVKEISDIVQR

Usually IC50 stands for the concentration that gives 50% inhibition. On to `O=C1Nc2ccccc2C1=C1Nc2ccccc2C1=NOCC(O)CO` (stereo not shown) [E804], for which the IC50 amounted to 8.7 µM.

The values above are taken from PMC3361532 (2012).
